Measurements from patent publication US20060147485A1, “Oil-in-water formulation of avermectins” (priority 2005, published 2006).

Tests used:
[1] = Stability of Abamectin in water exposed to light at various pH-values (HPLC); type: physicochemical; conditions: Light (5000-6000 lux)
Protocol: The stability of Abamectin in water exposed to light at various pH-values was determined. 194.4 mg of abamectin was dissolved in 10 ml methanol and 1 ml of the solution transferred to 100 ml of demineralised water and a part of this transferred to a buffer solution. The solution was exposed to light (5000-6000 lux) at 25° C. and analysed using a HPLC.

[2] = Stability of Abamectin in water at various pH-values and temperatures (dark, HPLC); type: physicochemical
Protocol: The stability of Abamectin in water at various pH-values and temperatures was determined. 194.4 mg of abamectin was dissolved in 10 ml methanol and 1 ml of the solution transferred to 100 ml of de-mineralised water and a part of this was transferred to a buffer solution. The sample was kept in the dark and the solution analysed using a HPLC.

Abamectin
Abemectin concentration (ppm) ([1]; pH 4.0, 25° C., 7 days): 2.923 ppm | Abemectin concentration (ppm) ([1]; pH 4.0, 25° C., 14 days): 2.332 ppm | Abemectin concentration (ppm) ([1]; pH 4.0, 25° C., 21 days): 1.961 ppm | Abemectin concentration (ppm) ([1]; pH 4.0, 25° C., 28 days): 1.666 ppm | Abemectin concentration (ppm) ([1]; pH 4.0, 25° C., Initial): 3.495 ppm | Abemectin concentration (ppm) ([1]; pH 7.0, 25° C., 7 days): 2.941 ppm | Abemectin concentration (ppm) ([1]; pH 7.0, 25° C., 14 days): 2.529 ppm | Abemectin concentration (ppm) ([1]; pH 7.0, 25° C., 21 days): 2.223 ppm | Abemectin concentration (ppm) ([1]; pH 7.0, 25° C., 28 days): 2.034 ppm | Abemectin concentration (ppm) ([1]; pH 7.0, 25° C., Initial): 3.327 ppm | Abemectin concentration (ppm) ([1]; pH 9.0, 25° C., 7 days): 3.163 ppm | Abemectin concentration (ppm) ([1]; pH 9.0, 25° C., 14 days): 2.810 ppm | Abemectin concentration (ppm) ([1]; pH 9.0, 25° C., 21 days): 2.360 ppm | Abemectin concentration (ppm) ([1]; pH 9.0, 25° C., 28 days): 2.173 ppm | Abemectin concentration (ppm) ([1]; pH 9.0, 25° C., Initial): 3.555 ppm | Abemectin concentration (ppm) ([2]; pH 4.0, 25 ° C., 7 days): 3.130 ppm | Abemectin concentration (ppm) ([2]; pH 4.0, 25 ° C., 14 days): 2.782 ppm | Abemectin concentration (ppm) ([2]; pH 4.0, 25 ° C., 21 days): 2.566 ppm | Abemectin concentration (ppm) ([2]; pH 4.0, 25 ° C., 28 days): 2.524 ppm | Abemectin concentration (ppm) ([2]; pH 4.0, 25 ° C., Initial): 3.495 ppm | Abemectin concentration (ppm) ([2]; pH 4.0, 50 ° C., 7 days): 1.054 ppm | Abemectin concentration (ppm) ([2]; pH 4.0, 50 ° C., 14 days): 0.383 ppm | Abemectin concentration (ppm) ([2]; pH 4.0, 50 ° C., 21 days): 0.123 ppm | Abemectin concentration (ppm) ([2]; pH 4.0, 50 ° C., 28 days): 0.0609 ppm | Abemectin concentration (ppm) ([2]; pH 4.0, 50 ° C., Initial): 3.495 ppm | Abemectin concentration (ppm) ([2]; pH 7.0, 25 ° C., 7 days): 3.188 ppm | Abemectin concentration (ppm) ([2]; pH 7.0, 25 ° C., 14 days): 3.040 ppm | Abemectin concentration (ppm) ([2]; pH 7.0, 25 ° C., 21 days): 2.829 ppm | Abemectin concentration (ppm) ([2]; pH 7.0, 25 ° C., 28 days): 2.676 ppm | Abemectin concentration (ppm) ([2]; pH 7.0, 25 ° C., Initial): 3.327 ppm | Abemectin concentration (ppm) ([2]; pH 7.0, 50 ° C., 7 days): 2.952 ppm | Abemectin concentration (ppm) ([2]; pH 7.0, 50 ° C., 14 days): 2.780 ppm | Abemectin concentration (ppm) ([2]; pH 7.0, 50 ° C., 21 days): 2.194 ppm | Abemectin concentration (ppm) ([2]; pH 7.0, 50 ° C., 28 days): 1.949 ppm | Abemectin concentration (ppm) ([2]; pH 7.0, 50 ° C., Initial): 3.327 ppm | Abemectin concentration (ppm) ([2]; pH 9.0, 25 ° C., 7 days): 3.005 ppm | Abemectin concentration (ppm) ([2]; pH 9.0, 25 ° C., 14 days): 2.596 ppm | Abemectin concentration (ppm) ([2]; pH 9.0, 25 ° C., 21 days): 2.380 ppm | Abemectin concentration (ppm) ([2]; pH 9.0, 25 ° C., 28 days): 2.287 ppm | Abemectin concentration (ppm) ([2]; pH 9.0, 25 ° C., Initial): 3.555 ppm | Abemectin concentration (ppm) ([2]; pH 9.0, 50 ° C., 7 days): 1.265 ppm | Abemectin concentration (ppm) ([2]; pH 9.0, 50 ° C., 14 days): 0.519 ppm | Abemectin concentration (ppm) ([2]; pH 9.0, 50 ° C., 21 days): 0.205 ppm | Abemectin concentration (ppm) ([2]; pH 9.0, 50 ° C., 28 days): 0.0628 ppm | Abemectin concentration (ppm) ([2]; pH 9.0, 50 ° C., Initial): 3.555 ppm
